Type in all cases: cell-based
The test system of data set [1] is AGS cell strain. The data set is described as follows: Cell growth test (CCK-8 assay) after transfection of BART miRNA mimics. Particulars: 72 hours after transfection; for Relative Cell Growth: mimic 10 nM, relative to scrambled control (=1). Here is the method: An AGS cell strain (Korean Cell Line Bank), which is a stomach cancer cell strain, was cultured in an RPMI1640 (Gibco) culture medium including 10% fetal bovine serum. Mature type synthesized BART miRNAs were transfected to the AGS cell strain by using G-fectin (Genolution) according to a protocol of the manufacture.
To investigate the effect of individual EBV BART miRNAs on the AGS cell strain, the synthesized miRNAs were transfected to the AGS cell strain and, after 72 hours, cells were counted by CCK-8 assay.
Immediately after the AGS cell strain, which is an EBV-negative cell strain, was divided into 96-well plate having 1×10^3 cells/well, a synthesized miRNA (10 nM) was transfected by using G-fectin. After the transfection, according to the experimental objective, the cells were cultured at 37° C. in an incubator, and then CCK-8 was divided among the wells by allocating 10 μl of CCK-8 to each well and the resulting mixture was cultured in an incubator at 37° C. for two hours. Then, the light absorbance was measured with an ELISA measuring instrument.
By the method described in Example 3, miR-BART5-5p mimic or miR-BART15-3p mimic (10 nM) were transfected to the AGS cell strain, and the effect thereof on cell growth was investigated over time.
miR-BART5-5p, miR-BART15-3p, and miR-BART20-3p were transfected to the AGS cell strain (1×10^3 cells/well) in a concentration of 1, 3, 10, and 30 nM, and the effect on cell growth was investigated. Immediately after the AGS cell strain was divided into a 96-well plate such that 1×10^3 AGS cells were allocated to each well, a synthesized miRNA was transfected by using G-fectin. Seventy two hours after the transfection, CCK-8 was divided among the wells by allocating 10 μl of CCK-8 to each well, and the resulting mixture was cultured at 37° C. in an incubator for two hours.
In general terms: Formazan colour is commonly taken as a measure of viable cells.

The test system of data set [2] is AGS cell strain. The data set is described as follows: Effect on cell cycle (propidium iodide staining, FACS, sub G1). Particulars: mimic 10 nM, 10 uM 5-FU 24 h after transfection, then 48 hours, relative to scrambled control (=1). Here is the method: The AGS cells were divided into a 96-well plate such that 2×10^5 AGS cells were allocated to each well, and synthesized miRNAs (10 nM) were transfected and cultured at 37° C. in an incubator. Twenty four hours after the transfection, 10 uM of 5-FU, which is an anti-cancer agent, was treated in one case or not treated in another case, and then the resulting mixture was cultured in an incubator at 37° C. for 48 hours. The cells were detached by using Trypsin-EDTA and washed with PBS two times.
Immediately after the AGS cell strains, which are EBV-negative cell strains, were divided into a 6-well plate such that 2×10^5 AGS cells were allocated to each well, a synthesized miRNA (10 nM) was transfected by using G-fectin and cultured at 37° C. in an incubator. Twenty four hours after the transfection, 10 uM of 5-FU was treated and the resulting mixture was cultured at 37° C. in an incubator for 48 hours. The cells were detached by using Trypsin-EDTA and washed with PBS two times. Afterwards, DNA was stained by propidium iodide staining and the ratio of cells where cell cycle was changed was investigated by FACS.

The test system of data set [3] is AGS cell strain. The data set is described as follows: Measurement of apoptosis (Annexin V staining, FACS). Particulars: for Relative Apoptotic cell: AGS, mimic 10 nM, 10 uM 5-FU 24 h after transfection, then 48 hours, Annexin V, relative to scrambled control (=1), n=9; for effect on cell growth and apoptosis (summary statement): mimics transfected to AGS, tumor cell strain not infected with EBV. Here is the method:
Immediately after the AGS cell strain, which is an EBV-negative cell strain, was divided was divided into a 6-well plate such that 2×10^5 AGS cells were allocated to each well, a synthesized miRNA (10 nM) was transfected by using G-fectin and the resulting mixture was cultured at 37 t in an incubatorTwenty four hours after the transfection, 10 uM of 5-FU was treated and the resulting mixture was cultured in an incubator at 37° C. for 48 hours. The cells were detached by using Trypsin-EDTA and washed with PBS two times. Afterwards, the cells were treated with a PE Annexin V Apoptosis Detection Kit and the changed ratio of apoptotic cell was investigated by FACS (FIG. 7).
Immediately after the AGS cell strain, which is an EBV-negative cell strain, is divided into a 6-well plate such that 2×10^5 AGS cells were allocated to each well, a synthesized miRNA (10 nM) was transfected by using G-fectin and the resulting mixture was cultured at 37° C. Twenty four hours after the transfection, 10 uM of 5-FU, which is an anti-cancer agent, was treated and the resulting mixture was cultured in an incubator at 37° C. for 48 hours. The cells were detached by using Trypsin-EDTA and washed with PBS two times. Afterwards, the cells were treated with a PE Annexin V Apoptosis Detection Kit and the ratio of cells where apoptosis took place was measured by FACS.

The values that follow come from patent US9243247B2, “Composition for promoting apoptosis or inhibiting cell growth, comprising epstein-barr virus microrna” (Catholic University Industry Academic Cooperation Foundation, priority 2011, dated 2016).

Consider “BART22-5p: EBV BART miRNA mimic, double stranded RNA; sense SEQ NO: 53, antisense SEQ NO: 54 (sense UGCUAGACCCUGGAGUUGAACC; antisense GGUUCAACUCCAGGGUCUAGCA; chemistry not given here)”, for which the “Relative Cell Growth” value in the data set on AGS cell strain [1] (n=9) was determined as 1.529. For the same substance, the “Relative Sub G1” value with AGS cell strain [2] stood at 0.9654. For the same substance, in the data set on AGS cell strain [3], the “Relative Apoptotic cell” value worked out at 1.197; the “effect on cell growth and apoptosis (summary statement)” value (shortened to “effect on cell growth and apoptosis”) was “inhibit cell growth and promote apoptosis”. Further, the “Relative Apoptotic cell” value in the data set on AGS cell strain [3] (listed as 22-5p) is “significantly higher”.

On to “BART6-3p: EBV BART miRNA mimic, double stranded RNA; sense SEQ NO: 31, antisense SEQ NO: 32 (sense CGGGGAUCGGACUAGCCUUAGA; antisense UCUAAGGCUAGUCCGAUCCCCG; chemistry not given here)”, for which the “Relative Cell Growth” value with AGS cell strain [1] (n=9) was found to be 0.9101. Also, the results for the “Relative Sub G1” value in the data set with AGS cell strain [2] and in the data set with AGS cell strain [2] (listed as 6-3p) were 1.24 and “increased”, respectively. The “Relative Apoptotic cell” value in the data set on AGS cell strain [3] stood at 1.018.

As to “BART1-5p: EBV BART miRNA mimic, double stranded RNA; sense SEQ NO: 9, antisense SEQ NO: 10 (sense UCUUAGUGGAAGUGACGUGCUGUG; antisense CACAGCACGUCACUUCCACUAAGA; chemistry not given here)”, the “Relative Cell Growth” value in the data set with AGS cell strain [1] (n=9) was 1.141. For the same substance, the “Relative Sub G1” value in the data set on AGS cell strain [2] is 0.8028. Besides, the “Relative Apoptotic cell” value with AGS cell strain [3] was 1.08; in the data set on AGS cell strain [3] (listed as 1-5p) it was “significantly higher”. Also, the “effect on cell growth and apoptosis” value with AGS cell strain [3] was “inhibit cell growth and promote apoptosis”.

For “BART11-3p: EBV BART miRNA mimic, double stranded RNA; probably sense SEQ NO: 63, antisense SEQ NO: 64 (printed as BART11-5p) (sense ACGCACACCAGGCUGACUGCC; antisense GGCAGUCAGCCUGGUGUGCGU; chemistry not given here)”, in the data set with AGS cell strain [1] (n=9), the “Relative Cell Growth” value is recorded as 0.9459. Moreover, the “Relative Sub G1” value in the data set on AGS cell strain [2] was determined as 1.128. Also, the “Relative Apoptotic cell” value in the data set with AGS cell strain [3] is 1.058.

For “BART7-3p: EBV BART miRNA mimic, double stranded RNA; sense SEQ NO: 43, antisense SEQ NO: 44 (sense CAUCAUAGUCCAGUGUCCAGGG; antisense CCCUGGACACUGGACUAUGAUG; chemistry not given here)”, the “Relative Cell Growth” value in the data set with AGS cell strain [1] (n=9) came to 1.156. The “Relative Sub G1” value in the data set on AGS cell strain [2] is on record as 0.9393. In the data set on AGS cell strain [3], the “Relative Apoptotic cell” value was determined as 1.107.

On to “BART20-3p: EBV BART miRNA mimic, double stranded RNA; sense SEQ NO: 75, antisense SEQ NO: 76 (sense CAUGAAGGCACAGCCUGUUACC; antisense GGUAACAGGCUGUGCCUUCAUG; chemistry not given here)”, for which the cell growth result in the data set on AGS cell strain [1] (30 nM) is “almost no cell growth”. Besides, the “cell growth depending on mimic concentration (onset of inhibition)” value in the data set with AGS cell strain [1] (1, 3, 10 and 30 nM) is “decreased cell growth, beginning at 10 nm”. The “Relative Cell Growth” value in the data set on AGS cell strain [1] (n=9) was 0.8577; with AGS cell strain [1] (n=9, listed as miR-BART20-3p), “inhibited cell growth”. Besides, the results for the “Relative Sub G1” value with AGS cell strain [2] and in the data set with AGS cell strain [2] (listed as 20-3p) were 1.618 and “increased”, respectively. The “Relative Apoptotic cell” value in the data set with AGS cell strain [3] is given as 1.416; with AGS cell strain [3] (listed as 20-3p), “significantly higher”. For the same substance, the “effect on cell growth and apoptosis” value in the data set with AGS cell strain [3] was “inhibit cell growth and promote apoptosis”.

For the substance “BART11-5p: EBV BART miRNA mimic, double stranded RNA; sense SEQ NO: 61, antisense SEQ NO: 62 (sense UCAGACAGUUUGGUGCGCUAGUUG; antisense CAACUAGCGCACCAAACUGUCUGA; chemistry not given here)”, the “Relative Cell Growth” value in the data set on AGS cell strain [1] (n=9) came out at 1.08. For the same substance, in the data set on AGS cell strain [2], the “Relative Sub G1” value was 1.081. Moreover, the “Relative Apoptotic cell” value in the data set on AGS cell strain [3] is reported as 1.006.

As for “BART13-5p: EBV BART miRNA mimic, double stranded RNA; sense SEQ NO: 77, antisense SEQ NO: 78 (sense AACCGGCUCGUGGCUCGUACAG; antisense CUGUACGAGCCACGAGCCGGUU; chemistry not given here)”, in the data set with AGS cell strain [1] (n=9), the “Relative Cell Growth” value is on record as 1.326. Further, the “Relative Sub G1” value with AGS cell strain [2] was 1.178; with AGS cell strain [2] (listed as 13-5p), “increased”. Moreover, the entries for the “Relative Apoptotic cell” value in the data set on AGS cell strain [3] and in the data set with AGS cell strain [3] (listed as 13-5p) were 1.077 and “significantly higher”, respectively. Moreover, the “effect on cell growth and apoptosis” value in the data set with AGS cell strain [3] was “inhibit cell growth and promote apoptosis”.

Take “BART21-3p: EBV BART miRNA mimic, double stranded RNA; sense SEQ NO: 35, antisense SEQ NO: 36 (sense CUAGUUGUGCCCACUGGUGUUU; antisense AAACACCAGUGGGCACAACUAG; chemistry not given here)”: the “Relative Cell Growth” value in the data set on AGS cell strain [1] (n=9) is reported as 1.215. Further, in the data set on AGS cell strain [2], the “Relative Sub G1” value is on record as 0.965. Moreover, in the data set on AGS cell strain [3], the “Relative Apoptotic cell” value was determined as 1.155; the “effect on cell growth and apoptosis” value was “inhibit cell growth and promote apoptosis”. The “Relative Apoptotic cell” value in the data set with AGS cell strain [3] (listed as 21-3p) is “significantly higher”.

With “BART2-5p: EBV BART miRNA mimic, double stranded RNA; sense SEQ NO: 85, antisense SEQ NO: 86 (sense UAUUUUCUGCAUUCGCCCUUGC; antisense GCAAGGGCGAAUGCAGAAAAUA; chemistry not given here)”, the “Relative Cell Growth” value with AGS cell strain [1] (n=9) stood at 1.085. In the data set on AGS cell strain [2], the “Relative Sub G1” value was 1.092. For the same substance, in the data set on AGS cell strain [3], the “Relative Apoptotic cell” value is recorded as 1.082.
